Patent publication US6451790B1, “Azadioxacycloalkenes and their use for combating harmful fungi and animal pests” (BASF Aktiengesellschaft, priority 1999, dated 2002)

Legend:
Assay type in all cases: in vivo
Puccinia recondita = assay: Curative action against Puccinia recondita on wheat (wheat leaf rust); conditions: 16 ppm, curative spray 1 day after inoculation, wheat 'Kanzler', 7 days; untreated 100%
Botrytis cinerea = assay: Action against Botrytis cinerea on bell pepper leaves; conditions: 250 ppm, spray 1 day before inoculation, bell pepper seedlings, after 5 days; untreated 80%
Description: The active compounds, separately or together, were formulated as a 10% emulsion in a mixture of 70% by weight of cyclohexanone, 20% by weight of Nekanil® LN (Lutensol® AP6, wetting agent having emulsifying and dispersant action based on ethoxylated alkylphenols) and 10% by weight of Wettol® EM (nonionic emulsifier based on ethoxylated castor oil) and diluted with water to the desired concentration.
Bell pepper seedlings of the variety “Neusiedler Ideal Elite” were, after 4 to 5 leaves were well developed, sprayed to run-off point with an aqueous active compound formulation which had been made up from a stock solution consisting of 10% of active compound, 63% of cyclohexanone and 27% of emulsifier. The next day, the treated plants were inoculated with a spore suspension of Botrytis cinerea which contained 1.7×10^6 spores/ml in an aqueous 2% strength biomalt solution. The test plants were subsequently placed in a climatized chamber at 22-24° C. and high atmospheric humidity. After 5 days, the extent of the fungal infection on the leaves could be determined visually in %.

Pyricularia oryzae = conditions: 16 ppm, protective spray 1 day before inoculation, rice 'Tai-Nong 67', 6 days; untreated 90%

SMILES | infection (extent of rust fungus development on the leaves) (Puccinia recondita) | infection (extent of fungal infection on the leaves) (Botrytis cinerea) | infection (extent of development of the disease on the leaves) (Pyricularia oryzae)
CO/N=C(/C(=O)OC)c1ccccc1COc1ccn(-c2ccc(Cl)cc2)n1 [Compound A] | 60% | 40% | 
CO/N=C(/C1=NOCCO1)c1ccccc1COc1ccn(-c2ccc(Cl)cc2)n1 [Compound I-1, (ortho-[1-{4-chlorophenyl}-pyrazol-3-yl-oxymethyl]-phenyl)(5,6-dihydro-[1,4,2]dioxazin-3-yl)methanone O-methyl oxime] | no infection | 3% | 10%
CO/N=C(/C1=NOCCO1)c1ccccc1COc1ccccc1C [Compound B] | 90% |  | 40%
